# According to ChEMBL document CHEMBL1201862, “PubChem BioAssay data set” (2004):
# Calls of active or inactive are those of the source.
# What was measured:
# [1] = target: T1, Nuclear receptor subfamily 0 group B member 1 (Homo sapiens, UniProt P51843); type: functional, cell-based;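 further: HEK293T cells transfected with SF-1 and DAX-1 plus StAR promoter luciferase reporter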
# T1 sequence (P51843 whole entry): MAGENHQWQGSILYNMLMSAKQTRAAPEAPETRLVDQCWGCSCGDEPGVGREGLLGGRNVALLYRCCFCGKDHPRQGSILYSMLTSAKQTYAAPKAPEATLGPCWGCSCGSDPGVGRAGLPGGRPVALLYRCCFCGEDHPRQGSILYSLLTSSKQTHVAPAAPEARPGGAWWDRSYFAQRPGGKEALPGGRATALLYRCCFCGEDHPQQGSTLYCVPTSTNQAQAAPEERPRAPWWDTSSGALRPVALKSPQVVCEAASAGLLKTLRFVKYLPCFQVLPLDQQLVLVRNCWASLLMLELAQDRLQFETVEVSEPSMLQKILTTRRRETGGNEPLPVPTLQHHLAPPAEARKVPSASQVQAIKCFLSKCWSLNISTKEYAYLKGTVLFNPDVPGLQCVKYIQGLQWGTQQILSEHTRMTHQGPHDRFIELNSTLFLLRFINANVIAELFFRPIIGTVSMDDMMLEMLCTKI
# [2] = cells; type: functional, cell-based
# [3] = target: T2, High affinity choline transporter 1 (Homo sapiens, UniProt Q9GZV3); test: human choline transporter blockers, potency – cell-based, 5-point CRC, membrane potential dye, dose response (AID 504840); type: functional
# T2 sequence (Q9GZV3 whole entry): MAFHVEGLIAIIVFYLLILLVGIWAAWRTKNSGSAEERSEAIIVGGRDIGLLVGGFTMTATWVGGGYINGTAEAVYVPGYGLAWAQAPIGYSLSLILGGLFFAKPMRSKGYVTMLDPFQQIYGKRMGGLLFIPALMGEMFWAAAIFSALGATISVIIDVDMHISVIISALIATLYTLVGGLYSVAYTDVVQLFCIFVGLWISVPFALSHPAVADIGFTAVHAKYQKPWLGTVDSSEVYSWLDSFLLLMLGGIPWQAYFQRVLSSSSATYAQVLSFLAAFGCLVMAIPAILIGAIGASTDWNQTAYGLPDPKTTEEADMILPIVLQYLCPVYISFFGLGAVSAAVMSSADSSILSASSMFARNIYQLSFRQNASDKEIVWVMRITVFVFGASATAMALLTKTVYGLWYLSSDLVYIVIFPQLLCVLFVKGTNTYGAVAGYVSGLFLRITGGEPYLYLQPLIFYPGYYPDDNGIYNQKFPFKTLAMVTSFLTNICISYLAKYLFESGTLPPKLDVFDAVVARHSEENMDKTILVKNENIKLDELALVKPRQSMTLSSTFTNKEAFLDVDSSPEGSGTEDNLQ
# [4] = T. cruzi growth inhibition in host cells, dose response, cell-based, plate reader, dry powder, set 2 (AID 652275); type: functional
# [5] = target: 1-phosphatidylinositol 4,5-bisphosphate phosphodiesterase beta-3 (Homo sapiens, UniProt Q01970); test: Fluorescence-based biochemical high throughput dose response assay to identify inhibitors of phospholipase C isozymes (PLC-B3).
# [6] = target: 1-phosphatidylinositol 4,5-bisphosphate phosphodiesterase gamma-1 (Homo sapiens, UniProt P19174); test: Counterscreen for inhibitors of phospholipase C isozymes (PLC-B3): Fluorescence-based biochemical high throughput dose response assay to identify inhibitors of phospholipase C isozymes (PLC-gamma1).
# [7] = MITF: Counter assay: A375 proliferation Measured in Cell-Based System Using Plate Reader - 2084-03_Inhibitor_Dose_DryPowder_Activity_Set8.; type: functional; conditions: A-375
# [8] = MITF Orthogonal Assay: SK-MEL-5 CTG Assay Measured in Cell-Based System Using Plate Reader - 2084-02_Inhibitor_Dose_DryPowder_Activity_Set7.; type: functional
# [9] = inhibitors of TRPM1-promoter reporter in SK-MEL-5 – cell-based, luciferase, dry powder, set 8, MITF inhibitor project, dose response (AID 624430); type: functional
# [10] = target: Paired box protein Pax-8 (Homo sapiens, UniProt Q06710); test: PAX8 transcriptional activity inhibition in RMG-I – RMG-I cells, luciferase, cherry-pick, dose response (AID 687027); type: functional, cell-based;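 further: luciferase reporter driven by Pax8 target thyroperoxidase promoter measured by SteadyGlo luminescence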
# [11] = general cell-killing toxicity readout – plate reader, dry powder samples, cytotoxicity control for PAX8 inhibitor project, dose response (AID 743021); type: functional, cell-based
# [12] = target: T3, Sentrin-specific protease 8 (Homo sapiens, UniProt Q96LD8); type: functional
# T3 sequence (Q96LD8 whole entry): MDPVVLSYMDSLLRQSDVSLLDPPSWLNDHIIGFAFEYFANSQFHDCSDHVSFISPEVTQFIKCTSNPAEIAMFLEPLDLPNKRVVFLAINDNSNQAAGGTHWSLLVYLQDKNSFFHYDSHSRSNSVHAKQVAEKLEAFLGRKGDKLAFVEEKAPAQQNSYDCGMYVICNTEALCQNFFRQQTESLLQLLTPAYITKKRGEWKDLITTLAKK
# [13] = target: T4, Replicative DNA helicase DnaB (Mycobacterium tuberculosis, UniProt P9WMR3); test: DnaB intein splicing inhibitors, dose response, biochemical, cell-free fluorescence (AID 449749); type: functional
# T4 sequence (P9WMR3 whole entry): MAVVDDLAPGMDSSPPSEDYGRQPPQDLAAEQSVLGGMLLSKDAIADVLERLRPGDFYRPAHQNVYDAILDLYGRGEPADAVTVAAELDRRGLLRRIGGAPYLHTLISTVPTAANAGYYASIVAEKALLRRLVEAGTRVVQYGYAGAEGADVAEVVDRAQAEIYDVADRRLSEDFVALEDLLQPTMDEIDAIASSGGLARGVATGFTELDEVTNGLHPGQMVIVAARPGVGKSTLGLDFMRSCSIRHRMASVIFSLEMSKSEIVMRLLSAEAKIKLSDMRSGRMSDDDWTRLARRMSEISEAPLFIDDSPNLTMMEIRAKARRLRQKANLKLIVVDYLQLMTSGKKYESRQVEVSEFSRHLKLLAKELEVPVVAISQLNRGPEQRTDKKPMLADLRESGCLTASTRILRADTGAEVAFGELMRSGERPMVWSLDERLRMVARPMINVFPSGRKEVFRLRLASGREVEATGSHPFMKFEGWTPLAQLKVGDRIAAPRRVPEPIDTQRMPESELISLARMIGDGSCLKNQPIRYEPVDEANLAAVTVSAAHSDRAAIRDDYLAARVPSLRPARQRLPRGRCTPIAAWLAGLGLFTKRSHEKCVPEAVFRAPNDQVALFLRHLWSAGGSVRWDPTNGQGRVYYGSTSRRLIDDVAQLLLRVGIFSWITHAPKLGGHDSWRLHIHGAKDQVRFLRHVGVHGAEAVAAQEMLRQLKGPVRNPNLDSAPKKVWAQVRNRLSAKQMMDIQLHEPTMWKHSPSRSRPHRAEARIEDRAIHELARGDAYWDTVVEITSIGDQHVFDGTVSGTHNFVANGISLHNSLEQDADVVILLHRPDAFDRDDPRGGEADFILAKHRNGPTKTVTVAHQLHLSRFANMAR
# [14] = target: T3, Sentrin-specific protease 8; type: functional; remark: listed apart in the source
# [15] = target: T5, Mannose-6-phosphate isomerase (Homo sapiens, UniProt P34949); test: MPI inhibition at elevated mannose 6-phosphate – biochemical, fluorescence intensity, high mannose 6-phosphate, primary screen (AID 1220)
# T5 sequence (P34949 whole entry): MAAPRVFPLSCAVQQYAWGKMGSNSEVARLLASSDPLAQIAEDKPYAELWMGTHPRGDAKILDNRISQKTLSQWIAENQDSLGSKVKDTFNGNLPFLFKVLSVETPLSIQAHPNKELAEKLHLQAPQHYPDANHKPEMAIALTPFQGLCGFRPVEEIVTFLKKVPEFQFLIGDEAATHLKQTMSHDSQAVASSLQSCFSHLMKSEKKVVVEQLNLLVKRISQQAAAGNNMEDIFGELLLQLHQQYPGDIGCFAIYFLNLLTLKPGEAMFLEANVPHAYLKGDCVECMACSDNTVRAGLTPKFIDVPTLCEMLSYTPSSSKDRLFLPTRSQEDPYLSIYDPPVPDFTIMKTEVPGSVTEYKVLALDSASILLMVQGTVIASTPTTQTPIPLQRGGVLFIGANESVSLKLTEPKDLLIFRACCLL
# [16] = target: T6, Protein RecA (Mycobacterium tuberculosis, UniProt P9WHJ3); test: Fluorescence Cell-Free Homogeneous Dose Retest to Identify Inhibitors of RecA-Intein Splicing Activity. [Related pubchem assays (depositor defined):AID2097, AID2223, AID489010, AID492950]; type: functional
# T6 sequence (P9WHJ3 whole entry): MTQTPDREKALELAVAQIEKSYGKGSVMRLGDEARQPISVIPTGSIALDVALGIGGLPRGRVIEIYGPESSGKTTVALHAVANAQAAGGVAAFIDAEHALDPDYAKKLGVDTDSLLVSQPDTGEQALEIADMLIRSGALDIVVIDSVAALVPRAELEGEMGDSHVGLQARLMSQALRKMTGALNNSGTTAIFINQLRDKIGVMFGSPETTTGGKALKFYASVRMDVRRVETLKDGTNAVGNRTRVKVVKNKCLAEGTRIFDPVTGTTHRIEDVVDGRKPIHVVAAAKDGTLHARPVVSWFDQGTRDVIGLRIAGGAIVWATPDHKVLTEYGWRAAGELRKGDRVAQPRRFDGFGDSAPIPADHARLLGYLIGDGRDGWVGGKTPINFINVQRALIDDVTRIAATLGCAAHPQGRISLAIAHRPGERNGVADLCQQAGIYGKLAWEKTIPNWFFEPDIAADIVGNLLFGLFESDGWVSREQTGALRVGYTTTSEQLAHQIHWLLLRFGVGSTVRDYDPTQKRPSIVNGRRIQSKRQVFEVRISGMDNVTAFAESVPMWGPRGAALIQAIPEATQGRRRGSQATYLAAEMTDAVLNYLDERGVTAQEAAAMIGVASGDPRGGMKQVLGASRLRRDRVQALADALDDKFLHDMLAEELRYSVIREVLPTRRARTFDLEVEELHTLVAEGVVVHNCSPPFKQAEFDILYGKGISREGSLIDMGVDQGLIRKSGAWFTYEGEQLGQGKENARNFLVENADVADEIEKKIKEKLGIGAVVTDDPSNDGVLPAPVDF
# [17] = target: T7, Caspase-3 (Homo sapiens, UniProt P42574); test: Dose-response confirmation of uHTS inhibitor hits of Sentrin-Specific Protease 8 in a Caspase-3 Fluorescence assay.; type: functional
# T7 sequence (P42574 whole entry): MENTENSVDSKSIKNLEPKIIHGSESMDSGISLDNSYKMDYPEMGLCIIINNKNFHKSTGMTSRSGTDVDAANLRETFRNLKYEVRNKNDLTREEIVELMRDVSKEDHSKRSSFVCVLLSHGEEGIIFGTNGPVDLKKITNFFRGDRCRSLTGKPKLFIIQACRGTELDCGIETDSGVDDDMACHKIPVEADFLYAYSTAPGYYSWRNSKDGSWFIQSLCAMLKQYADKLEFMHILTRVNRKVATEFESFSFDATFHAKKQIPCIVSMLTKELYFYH
# [18] = target: Disintegrin and metalloproteinase domain-containing protein 17 (Homo sapiens, UniProt P78536); test: exosite inhibitors of ADAM17, dose response, biochemical (AID 743260)
# [19] = inhibition of ADAM10 peptide cleavage – biochemical, FRET peptide substrate, recombinant human ADAM10, selectivity assay for ADAM17 exosite inhibitor project, dose response (AID 743259);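 further: ADAM10 enzyme cleaving a FRET peptide substrate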
# [20] = viability loss in HepG2 hepatoma cells – cell-based, ATP luminescence, cherry-pick, activator set 2, cytotoxicity control, dose response (AID 1053143); type: functional
# [21] = target: Galanin receptor type 3 (Homo sapiens, UniProt O60755); test: Fluorescence-based cell-based primary high throughput dose response assay to identify antagonists of the Galanin Receptor 3 (GalR3).; type: functional
# [22] = HPDE-C7 pancreatic duct cell viability loss – fluorescence, HTS (AID 430); type: functional, cell-based; conditions: Homo sapiens
# [23] = cells; type: functional, cell-based; conditions: HEK-CNG
# [24] = viability loss of HPDE-C7K cells – cell-based, fluorescence, HTS, primary screen (AID 431); type: functional; conditions: Homo sapiens
# [25] = cells; type: functional, cell-based; remark: listed apart in the source
# [26] = cells; type: functional, cell-based; remark: listed apart in the source
# Chain of Disintegrin and metalloproteinase domain-containing protein 17 (P78536 whole entry, the tested form may be a part): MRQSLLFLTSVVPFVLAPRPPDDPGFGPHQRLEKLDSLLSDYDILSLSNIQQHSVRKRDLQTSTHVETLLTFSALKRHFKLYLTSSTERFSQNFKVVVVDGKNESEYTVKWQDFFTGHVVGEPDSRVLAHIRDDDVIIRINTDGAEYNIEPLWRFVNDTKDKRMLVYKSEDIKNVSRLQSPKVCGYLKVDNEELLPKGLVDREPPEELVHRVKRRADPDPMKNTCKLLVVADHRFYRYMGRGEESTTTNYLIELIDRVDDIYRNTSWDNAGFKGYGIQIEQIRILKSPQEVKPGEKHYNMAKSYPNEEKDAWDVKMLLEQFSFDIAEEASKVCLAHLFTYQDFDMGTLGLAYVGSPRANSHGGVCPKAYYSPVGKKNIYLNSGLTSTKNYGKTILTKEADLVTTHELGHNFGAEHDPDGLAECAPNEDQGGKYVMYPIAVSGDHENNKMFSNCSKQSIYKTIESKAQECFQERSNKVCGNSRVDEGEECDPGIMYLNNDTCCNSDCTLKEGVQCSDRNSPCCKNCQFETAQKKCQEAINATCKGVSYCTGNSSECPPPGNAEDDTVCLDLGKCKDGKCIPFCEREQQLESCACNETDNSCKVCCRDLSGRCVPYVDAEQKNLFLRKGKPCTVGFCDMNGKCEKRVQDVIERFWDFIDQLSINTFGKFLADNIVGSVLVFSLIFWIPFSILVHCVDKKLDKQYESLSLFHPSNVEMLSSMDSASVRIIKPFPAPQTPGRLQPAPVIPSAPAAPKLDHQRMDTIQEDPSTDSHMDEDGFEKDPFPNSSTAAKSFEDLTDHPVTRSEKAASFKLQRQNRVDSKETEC
# Chain of 1-phosphatidylinositol 4,5-bisphosphate phosphodiesterase beta-3 (Q01970 whole entry): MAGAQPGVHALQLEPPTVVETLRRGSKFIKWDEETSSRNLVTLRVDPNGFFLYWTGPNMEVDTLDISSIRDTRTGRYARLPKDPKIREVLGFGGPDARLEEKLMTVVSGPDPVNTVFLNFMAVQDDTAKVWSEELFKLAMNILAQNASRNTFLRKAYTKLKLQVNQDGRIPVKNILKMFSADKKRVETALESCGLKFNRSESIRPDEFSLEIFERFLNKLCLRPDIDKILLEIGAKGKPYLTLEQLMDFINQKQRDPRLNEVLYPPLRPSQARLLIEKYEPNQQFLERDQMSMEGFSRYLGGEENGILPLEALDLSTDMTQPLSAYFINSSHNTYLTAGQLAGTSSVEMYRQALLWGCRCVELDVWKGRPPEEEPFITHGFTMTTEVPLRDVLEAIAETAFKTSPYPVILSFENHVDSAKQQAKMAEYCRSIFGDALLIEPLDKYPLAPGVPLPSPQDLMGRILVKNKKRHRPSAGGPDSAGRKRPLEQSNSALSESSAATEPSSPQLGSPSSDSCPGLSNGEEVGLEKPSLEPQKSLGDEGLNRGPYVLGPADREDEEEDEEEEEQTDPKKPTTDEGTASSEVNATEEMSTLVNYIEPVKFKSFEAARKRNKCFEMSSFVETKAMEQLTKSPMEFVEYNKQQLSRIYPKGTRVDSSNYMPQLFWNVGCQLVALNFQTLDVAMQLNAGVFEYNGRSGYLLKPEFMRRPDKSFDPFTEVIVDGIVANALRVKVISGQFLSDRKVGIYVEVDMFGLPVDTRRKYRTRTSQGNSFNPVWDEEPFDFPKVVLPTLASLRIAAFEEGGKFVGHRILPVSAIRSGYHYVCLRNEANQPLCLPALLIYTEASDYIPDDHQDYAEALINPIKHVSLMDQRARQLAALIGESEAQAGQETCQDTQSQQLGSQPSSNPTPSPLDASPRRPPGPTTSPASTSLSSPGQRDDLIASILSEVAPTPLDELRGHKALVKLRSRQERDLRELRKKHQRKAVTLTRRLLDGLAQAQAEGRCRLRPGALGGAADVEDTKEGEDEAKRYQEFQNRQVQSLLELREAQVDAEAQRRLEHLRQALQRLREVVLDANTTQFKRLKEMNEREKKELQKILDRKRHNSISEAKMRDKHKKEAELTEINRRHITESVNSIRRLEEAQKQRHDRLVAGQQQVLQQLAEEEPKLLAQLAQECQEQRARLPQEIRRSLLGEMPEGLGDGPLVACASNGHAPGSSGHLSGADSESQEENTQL
# Chain of Galanin receptor type 3 (O60755 whole entry): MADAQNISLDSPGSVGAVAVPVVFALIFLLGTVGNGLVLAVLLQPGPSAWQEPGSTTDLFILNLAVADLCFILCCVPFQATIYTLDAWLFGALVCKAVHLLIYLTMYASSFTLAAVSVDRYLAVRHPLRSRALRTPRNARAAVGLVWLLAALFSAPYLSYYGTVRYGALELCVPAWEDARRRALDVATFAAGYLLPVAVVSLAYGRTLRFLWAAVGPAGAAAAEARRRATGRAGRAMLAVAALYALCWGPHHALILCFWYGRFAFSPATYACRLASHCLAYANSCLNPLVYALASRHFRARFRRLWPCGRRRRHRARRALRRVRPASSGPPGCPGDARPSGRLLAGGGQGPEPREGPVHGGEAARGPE
# Chain of 1-phosphatidylinositol 4,5-bisphosphate phosphodiesterase gamma-1 (P19174 whole entry): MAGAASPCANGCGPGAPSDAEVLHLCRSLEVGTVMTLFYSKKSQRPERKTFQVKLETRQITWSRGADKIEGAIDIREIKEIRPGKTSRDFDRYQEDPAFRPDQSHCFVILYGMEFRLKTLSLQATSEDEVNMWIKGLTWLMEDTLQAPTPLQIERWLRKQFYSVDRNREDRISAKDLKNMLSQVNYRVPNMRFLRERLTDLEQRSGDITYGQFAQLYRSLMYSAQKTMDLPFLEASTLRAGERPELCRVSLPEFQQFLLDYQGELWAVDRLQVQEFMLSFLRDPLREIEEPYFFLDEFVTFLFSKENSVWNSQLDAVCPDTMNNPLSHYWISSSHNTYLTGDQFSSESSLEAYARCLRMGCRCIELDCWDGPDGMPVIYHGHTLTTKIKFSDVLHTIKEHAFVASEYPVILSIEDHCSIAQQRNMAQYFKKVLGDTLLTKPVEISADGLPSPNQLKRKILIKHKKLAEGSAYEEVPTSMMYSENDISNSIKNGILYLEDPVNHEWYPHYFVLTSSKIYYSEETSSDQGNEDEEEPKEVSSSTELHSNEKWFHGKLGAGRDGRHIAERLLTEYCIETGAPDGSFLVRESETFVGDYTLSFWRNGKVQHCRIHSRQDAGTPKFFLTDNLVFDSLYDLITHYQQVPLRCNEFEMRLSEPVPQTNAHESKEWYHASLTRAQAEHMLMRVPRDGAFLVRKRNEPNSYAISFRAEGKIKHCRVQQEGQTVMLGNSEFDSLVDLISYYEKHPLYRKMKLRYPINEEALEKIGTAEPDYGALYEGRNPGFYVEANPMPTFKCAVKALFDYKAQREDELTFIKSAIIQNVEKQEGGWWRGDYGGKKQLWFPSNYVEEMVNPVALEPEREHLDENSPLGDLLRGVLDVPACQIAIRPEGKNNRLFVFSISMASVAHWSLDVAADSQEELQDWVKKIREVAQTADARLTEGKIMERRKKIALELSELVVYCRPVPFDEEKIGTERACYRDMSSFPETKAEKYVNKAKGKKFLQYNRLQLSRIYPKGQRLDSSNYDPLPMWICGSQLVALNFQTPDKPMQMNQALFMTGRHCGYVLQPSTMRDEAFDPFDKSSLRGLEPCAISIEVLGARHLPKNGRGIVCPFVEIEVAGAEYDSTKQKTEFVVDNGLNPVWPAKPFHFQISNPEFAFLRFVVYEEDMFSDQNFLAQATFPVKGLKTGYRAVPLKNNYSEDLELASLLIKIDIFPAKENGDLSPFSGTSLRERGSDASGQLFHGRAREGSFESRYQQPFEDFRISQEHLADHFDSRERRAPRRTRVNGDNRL
# Chain of Paired box protein Pax-8 (Q06710 whole entry): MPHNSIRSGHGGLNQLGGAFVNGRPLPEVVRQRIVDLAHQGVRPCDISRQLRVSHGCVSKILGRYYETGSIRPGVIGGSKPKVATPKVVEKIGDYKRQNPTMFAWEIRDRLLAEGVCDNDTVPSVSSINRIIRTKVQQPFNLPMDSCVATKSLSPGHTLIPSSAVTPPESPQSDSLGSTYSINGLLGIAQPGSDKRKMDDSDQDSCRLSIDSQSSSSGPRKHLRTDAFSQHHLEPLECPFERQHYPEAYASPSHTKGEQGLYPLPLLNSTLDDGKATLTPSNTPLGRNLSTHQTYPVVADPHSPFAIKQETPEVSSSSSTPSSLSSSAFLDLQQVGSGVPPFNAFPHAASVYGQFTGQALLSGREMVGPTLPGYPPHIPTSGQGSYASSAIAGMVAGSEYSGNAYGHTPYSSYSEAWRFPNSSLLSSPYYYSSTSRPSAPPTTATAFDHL
structure (smiles),measurement,setting,value
COc1ccccc1Nc1nnc(SCC2CCCCO2)s1 (configuration not stated),IC50,[1],> 0.834 µM (active)
same,IC50,[2],> 67.5 µM (inactive)
same,IC50,[3],4.17 µM (active)
CC(C)N1CC2(CN(Cc3cccc(F)c3)C2)Oc2c(NC(=O)c3ccncc3)cccc2C1=O,AC50,[4],0.41 µM (active)
Fc1ccc(-c2cc(-c3cccs3)cc(-c3ccccc3)n2)cc1,IC50,[5],> 123 µM (inactive)
same,IC50,[6],> 123 µM (inactive)
CC(C)N1CCN(C2=C(Nc3ccc(Cl)c(Cl)c3)C(=O)c3ccccc3C2=O)CC1,AC50,[7],19.4 µM (active)
same,AC50,[8],8.71 µM (active)
same,AC50,[9],3.21 µM (active)
COc1ccc(-c2cc(CNc3nc(NC(C)C)nc4cc(-c5ccccc5)sc34)on2)cc1,AC50,[10],9.84 µM (active)
same,AC50,[11],18.8 µM (active)
CCOC(=O)c1nn(-c2ccccc2C)c(=O)c2c(N)scc12,IC50,[12],4.12 µM (active)
same,AC50,[13],> 120 µM (inactive)
same,IC50,[14],17.3 µM (active)
same,IC50,[15],> 50 µM (not active)
same,EC50,[16],11.4 µM (active)
same,IC50,[17],93.3 µM (inactive)
COc1cccc(C(Nc2ccccc2)c2ccc3ccc(C)nc3c2O)c1 (configuration not stated),IC50,[18],> 69.2 µM (inactive)
same,IC50,[19],18.5 µM (inactive)
CN(C)C(=O)c1cccc(-c2ccc([C@H]3[C@@H](CO)N4CCCCN(C(=O)C5CCC5)C[C@H]34)cc2)c1,AC50,[4],1.29 µM (active)
NC(=O)c1ccc(NC(=O)C#Cc2ccccc2)cc1,AC50,[20],26 µM (active)
CC(C)c1cccc(-c2csc(C(O)c3cccc(Cl)c3)n2)c1 (configuration not stated),IC50,[18],> 69.5 µM (inactive)
same,IC50,[19],42.8 µM (inactive)
O=C(Nc1nnc(SCc2ccccc2F)s1)C1=COCCO1,IC50,[1],> 67.6 µM (inactive)
same,IC50,[2],> 67.6 µM (inactive)
CC(C)N1CCN(C2=C(Nc3ccc(I)cc3)C(=O)c3ccccc3C2=O)CC1,AC50,[7],33.9 µM (active)
same,AC50,[8],10.8 µM (active)
same,AC50,[9],2.96 µM (active)
CCn1c2ccccc2c2cc(C3C(C#N)=C(N)Oc4[nH]nc(COC)c43)ccc21 (configuration not stated),IC50,[21],> 29.9 µM (inactive)
same,EC50,[22],7.03 µM (active)
same,AC50,[13],> 380 µM (inconclusive)
same,EC50,[23],> 29.9 µM (inactive)
same,EC50,[24],7.72 µM (active)
same,EC50,[16],2.7 µM (active)
COc1ccc2nc(NC(=O)c3cccs3)sc2c1,EC50,[25],7.18 µM (active)
same,EC50,[26],> 350 µM (not active)
same,AC50,[20],26 µM (active)
